Columns and labels:
Fusarium culmorum [1] = test: whole plant or invertebrate; assay type: in vivo; conditions: in Triticum aestivum, read-out: control of Fusarium culmorum
[2] = test system: Magnaporthe grisea (Pyricularia oryzae); test: microbe, parasite or virus in culture; assay type: cell-based; conditions: read-out: control of Magnaporthe grisea
[3] = test system: Gibberella zeae (Fusarium graminearum); test: whole plant or invertebrate; assay type: in vivo; conditions: in Triticum aestivum, read-out: control of Gibberella zeae
[4] = test system: Glomerella lagenarium (Colletotrichum lagenarium); test: Glomerella lagenarium (Colletotrichum lagenarium) / liquid culture (anthracnose); assay type: cell-based; conditions: Colletotrichum orbiculare, compared to untreated control
Procedure: (§1) Conidia of the fungus from cryogenic storage are directly mixed into nutrient broth (PDB potato dextrose broth). After placing a (DMSO) solution of test compound into a microtiter plate (96-well format), the nutrient broth containing the fungal spores is added. The test plates are incubated at 24° C. and the inhibition of growth is measured photometrically 3-4 days after application.

[5] = test system: Monographella nivalis (Microdochium nivale); test: Monographella nivalis (Microdochium nivale) / liquid culture (foot rot cereals); assay type: cell-based; conditions: compared to untreated control
Procedure: Monographella nivalis (Microdochium nivale)/Liquid Culture (Foot Rot Cereals)
as §1, with “determined” for “measured”, “4-5” for “3-4”

Sclerotinia sclerotiorum = Sclerotinia sclerotiorum / liquid culture (cottony rot); assay type: cell-based; conditions: compared to untreated control
Procedure: Sclerotinia sclerotiorum/Liquid Culture (Cottony Rot)
Mycelia fragments of a newly grown liquid culture of the fungus are directly mixed into nutrient broth (Vogels broth). After placing a (DMSO) solution of test compound into a microtiter plate (96-well format) the nutrient broth containing the fungal material is added. The test plates are incubated at 24° C. and the inhibition of growth is determined photometrically 3-4 days after application.

[6] = test system: Botryotinia fuckeliana (Botrytis cinerea); test: Botryotinia fuckeliana (Botrytis cinerea) / liquid culture (gray mould); assay type: cell-based; conditions: compared to untreated control
Procedure: Botryotinia fuckeliana (Botrytis cinerea)/Liquid Culture (Gray Mould)
as §1, with “(Vogels” for “(PDB potato dextrose”, “determined” for “measured”

Fusarium culmorum [7] = test: microbe, parasite or virus in culture; assay type: cell-based; conditions: read-out: control of Fusarium culmorum

Row | SMILES | pest or weed control at 200 ppm (Fusarium culmorum [1]) [%] | inhibition of growth at 20 ppm [2] [%] | pest or weed control at 200 ppm [3] [%] | inhibition of growth at 200 ppm [4] [%] | inhibition of growth at 20 ppm [5] [%] | inhibition of growth at 20 ppm (Sclerotinia sclerotiorum) [%] | inhibition of growth at 200 ppm [6] [%] | inhibition of growth at 200 ppm (Fusarium culmorum [7]) [%] | melting point [°C]
1 | C[C@](Cc1ccccc1)(CC1(F)CC1)NC(=O)c1cnc2c(F)cccc2c1 [Compound F-24, N-[(1S)-1-benzyl-2-(1-fluorocyclopropyl)-1-methyl-ethyl]-8-fluoro-quinoline-3-carboxamide] | ≥ 80 | ≥ 80 | ≥ 80 | ≥ 80 | ≥ 80 | ≥ 80 | ≥ 80 | ≥ 80 | –
2 | CC1(C[C@](C)(Cc2ccccc2)NC(=O)c2cnc3c(F)cccc3c2)CC1 [Compound F-25, N-[(1R)-1-benzyl-1-methyl-2-(1-methylcyclopropyl)ethyl]-8-fluoro-quinoline-3-carboxamide] | ≥ 80 | ≥ 80 | ≥ 80 | ≥ 80 | – | ≥ 80 | ≥ 80 | ≥ 80 | –
3 | C[C@@](Cc1cccc(F)c1)(CC(F)(F)F)NC(=O)c1cnc2c(F)cccc2c1 [Compound F-27, 8-fluoro-N-[(1R)-3,3,3-trifluoro-1-[(3-fluorophenyl)methyl]-1-methyl-propyl]quinoline-3-carboxamide] | ≥ 80 | ≥ 80 | ≥ 80 | ≥ 80 | ≥ 80 | – | ≥ 80 | ≥ 80 | –
4 | C[C@](Cc1cccc(F)c1)(CC(F)(F)F)NC(=O)c1cnc2c(F)cccc2c1 [Compound F-28, 8-fluoro-N-[(1S)-3,3,3-trifluoro-1-[(3-fluorophenyl)methyl]-1-methyl-propyl]quinoline-3-carboxamide] | ≥ 80 | ≥ 80 | ≥ 80 | ≥ 80 | – | ≥ 80 | ≥ 80 | ≥ 80 | –
5 | CC(C)C[C@](C)(Cc1cccc(F)c1)NC(=O)c1cnc2c(F)cccc2c1 [Compound F-29, 8-fluoro-N-[(1R)-1-[(3-fluorophenyl)methyl]-1,3-dimethyl-butyl]quinoline-3-carboxamide] | ≥ 80 | ≥ 80 | ≥ 80 | ≥ 80 | – | ≥ 80 | ≥ 80 | ≥ 80 | –
6 | C[C@](Cc1ccccc1)(CC(F)(F)F)NC(=O)c1cnc2ccccc2c1 [Compound F-34, N-[(1S)-1-benzyl-3,3,3-trifluoro-1-methyl-propyl]quinoline-3-carboxamide] | ≥ 80 | ≥ 80 | ≥ 80 | ≥ 80 | ≥ 80 | ≥ 80 | ≥ 80 | ≥ 80 | –
7 | C=C(Cl)C[C@](C)(Cc1ccccc1)NC(=O)c1cnc2c(F)cccc2c1 [Compound F-35] | ≥ 80 | ≥ 80 | ≥ 80 | ≥ 80 | ≥ 80 | ≥ 80 | ≥ 80 | ≥ 80 | –
8 | C=C(Cl)CC(C)(Cc1ccccc1)NC(=O)c1cnc2c(F)cccc2c1 (stereo not drawn) [X.001] | ≥ 80 | ≥ 80 | ≥ 80 | ≥ 80 | ≥ 80 | ≥ 80 | ≥ 80 | ≥ 80 | 56 to 59
9 | CC(Cc1ccccc1)(CC(F)(F)F)NC(=O)c1cnc2ccccc2c1 (stereo not drawn) [X.020, N-(1-benzyl-3,3,3-trifluoro-1-methyl-propyl)quinoline-3-carboxamide] | ≥ 80 | ≥ 80 | ≥ 80 | ≥ 80 | – | ≥ 80 | ≥ 80 | ≥ 80 | 130 to 132
